Experimental findings from US7897619B2, “Heterocyclic modulators of PKB” (Amgen Inc., priority 2007, dated 2011) are described below.

The target of this experiment is PKBα (Homo sapiens, UniProt P31749). Put plainly: PKB kinase assay (P33-labeled ATP, synthetic peptide substrate, filter plate). Type of experiment: biochemical. The settings on record: PKBα enzyme (full length or kinase domain with pleckstrin domain deleted). From the text: The kinase assay for evaluating PKB activity comprises active PKB enzymes, a PKB specific substrate, and P^33-labeled ATP. Two forms of PKBα enzymes were used, the full length PKBα and a kinase domain of PKBα with pleckstrin domain (amino acids 1-117) deleted. Both PKB enzymes were obtained from Upstate cell signaling solutions (Cat.# 14-276 and 14-341). The PKB substrate used is a synthetic peptide (ARKRERTYSFGHHA (SEQ ID NO: 1)) as described in Obata et al., J. Biol. Chem. 275 (46), 36108-36115 (2000). The phosphorylated substrate was captured by a phosphocellulose membrane filter plate (MILLIPORE) and measured by a Wallac Microbeta liquid scintillation counter (Perkin Elmer). Table 1 provides the IC50 values obtained for each of the examples with respect to PKBα.
Sequence of PKBα (P31749 118-480 limits assumed): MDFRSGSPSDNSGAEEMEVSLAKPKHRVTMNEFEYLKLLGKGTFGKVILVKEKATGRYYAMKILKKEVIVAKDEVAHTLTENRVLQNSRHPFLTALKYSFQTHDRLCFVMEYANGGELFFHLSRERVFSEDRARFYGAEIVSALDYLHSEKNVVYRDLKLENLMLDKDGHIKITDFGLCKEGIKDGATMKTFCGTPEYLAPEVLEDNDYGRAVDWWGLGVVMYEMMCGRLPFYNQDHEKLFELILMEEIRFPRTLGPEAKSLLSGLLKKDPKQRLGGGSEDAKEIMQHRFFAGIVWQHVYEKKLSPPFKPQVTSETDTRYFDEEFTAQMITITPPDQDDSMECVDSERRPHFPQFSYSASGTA

For orientation: IC50 means the point on the concentration scale where inhibition reaches its midpoint. `N[C@H](CCn1cc(-c2ccc3[nH]ncc3c2)nn1)Cc1ccc(C(F)(F)F)cc1` [Example 37, (2S)-4-(4-(1H-Indazol-5-yl)-1H-1,2,3-triazol-1-yl)-1-(4-(trifluoromethyl)phenyl)butan-2-amine]: the IC50 was 50 to 1000 nM. For the compound `N[C@H](CCn1cc(-c2ccc3cnccc3c2)cn1)Cc1ccc(Cl)cc1` [Example 56, (2S)-1-(4-Chlorophenyl)-4-(4-(isoquinolin-6-yl)-1H-pyrazol-1-yl)butan-2-amine], the IC50 is < 50 nM.

The compound `N[C@H](CNc1cc(-c2ccc3cnccc3c2)no1)Cc1ccccc1Cl` [Example 18, N-((S)-2-Amino-3-(2-chlorophenyl)propyl)-3-(isoquinolin-6-yl)isoxazol-5-amine] had an IC50 of 50 to 1000 nM.

In turn, `Cc1n[nH]c2ccc(-c3cn(CC[C@@H](N)Cc4ccc(C(F)(F)F)cc4)nn3)cc12` [Example 38, (2S)-4-(4-(3-Methyl-1H-indazol-5-yl)-1H-1,2,3-triazol-1-yl)-1-(4-(trifluoromethyl)phenyl)butan-2-amine] displayed an IC50 of 50 to 1000 nM.

`Cc1ccc(C[C@H](N)CCn2cc(-c3ccc4cnccc4c3)cn2)cc1` [Example 58, (2S)-4-(4-(Isoquinolin-6-yl)-1H-pyrazol-1-yl)-1-p-tolylbutan-2-amine] showed an IC50 of 50 to 1000 nM. `N[C@H](CNc1cnn(-c2ccc3cnccc3c2)c1)Cc1ccc(C(F)(F)F)cc1` [Example 42, N-((S)-2-Amino-3-(4-(trifluoromethyl)phenyl)propyl)-1-(isoquinolin-6-yl)-1H-pyrazol-4-amine] returned an IC50 of 50 to 1000 nM. With `Cc1c(-c2ccc3cnccc3c2)noc1NC[C@@H](N)Cc1ccccc1` [Example 17, N-((S)-2-Amino-3-phenylpropyl)-3-(isoquinolin-6-yl)-4-methylisoxazol-5-amine] the figure was 1000 to 10000 nM. With `N[C@H](CCn1cc(-c2ccc3cnccc3c2)cn1)Cc1ccc(Cl)cc1Cl` [Example 63, (2S)-1-(2,4-Dichlorophenyl)-4-(4-(isoquinolin-6-yl)-1H-pyrazol-1-yl)butan-2-amine] the figure was 50 to 1000 nM; with `N[C@H](CNc1cc(-c2ccc3cnccc3c2)on1)Cc1ccc(Cl)cc1` [Example 22, N-((S)-2-Amino-3-(4-chlorophenyl)propyl)-5-(isoquinolin-6-yl)isoxazol-3-amine], 50 to 1000 nM; with `N[C@H](CNc1cnn(-c2ccc3cnccc3c2)c1)Cc1ccc(Cl)cc1` [Example 46, N-((S)-2-Amino-3-(4-chlorophenyl)propyl)-1-(isoquinolin-6-yl)-1H-pyrazol-4-amine], 50 to 1000 nM.

Turning to `NCCc1c(-c2ccc3cnccc3c2)noc1NC[C@@H](N)Cc1c[nH]c2ccccc12` [Example 35, N-((S)-2-Amino-3-(1H-indol-3-yl)propyl)-4-(2-aminoethyl)-3-(isoquinolin-6-yl)isoxazol-5-amine], the IC50 is 1000 to 10000 nM. As for `N[C@H](CCc1nnc(-c2ccc3cnccc3c2)o1)Cc1ccc(C(F)(F)F)cc1` [Example 66, (2R)-4-(5-(Isoquinolin-6-yl)-1,3,4-oxadiazol-2-yl)-1-(4-(trifluoromethyl)phenyl)butan-2-amine], the figure is 50 to 1000 nM. As for `N[C@H](CCn1cc(-c2ccc3cnccc3c2)cn1)Cc1ccc(F)cc1` [Example 62, (2S)-1-(4-Fluorophenyl)-4-(4-(isoquinolin-6-yl)-1H-pyrazol-1-yl)butan-2-amine], the figure is 50 to 1000 nM. With `N[C@H](CNc1onc(-c2ccc3cnccc3c2)c1Cc1ccccc1)Cc1ccccc1` [Example 31, N-((S)-2-amino-3-phenylpropyl)-4-benzyl-3-(isoquinolin-6-yl)isoxazol-5-amine] the figure was 1000 to 10000 nM; with `N[C@H](CCn1cc(-c2ccc3cnccc3c2)cn1)Cc1ccc(F)c(F)c1` [Example 61, (2S)-1-(3,4-Difluorophenyl)-4-(4-(isoquinolin-6-yl)-1H-pyrazol-1-yl)butan-2-amine], 50 to 1000 nM.
